Laboratory results published in PMC7558026, “Exploring and applying the substrate promiscuity of a C-glycosyltransferase in the chemo-enzymatic synthesis of bioactive C-glycosides” (Nature Communications, 2020).

Experiments:
Type in all cases: biochemical, Aloe barbadensis
AbCGT [1] = assay: Effects of pH, temperature and divalent metal ions on AbCGT activity (phloretin 17 + UDP-Glc)
AbCGT [2] = target: T1, AbCGT (Aloe vera, UniProt A0A7G9P699); assay: Glycosyltransferase activity assay, purified AbCGT (wild type) with aglycon acceptors and UDP-Glc; settings: aglycon acceptor with UDP-Glc, pH 7.4, 30 °C, up to 12 h; Reaction-1 to -3
T1 sequence (A0A7G9P699 entry or part of it): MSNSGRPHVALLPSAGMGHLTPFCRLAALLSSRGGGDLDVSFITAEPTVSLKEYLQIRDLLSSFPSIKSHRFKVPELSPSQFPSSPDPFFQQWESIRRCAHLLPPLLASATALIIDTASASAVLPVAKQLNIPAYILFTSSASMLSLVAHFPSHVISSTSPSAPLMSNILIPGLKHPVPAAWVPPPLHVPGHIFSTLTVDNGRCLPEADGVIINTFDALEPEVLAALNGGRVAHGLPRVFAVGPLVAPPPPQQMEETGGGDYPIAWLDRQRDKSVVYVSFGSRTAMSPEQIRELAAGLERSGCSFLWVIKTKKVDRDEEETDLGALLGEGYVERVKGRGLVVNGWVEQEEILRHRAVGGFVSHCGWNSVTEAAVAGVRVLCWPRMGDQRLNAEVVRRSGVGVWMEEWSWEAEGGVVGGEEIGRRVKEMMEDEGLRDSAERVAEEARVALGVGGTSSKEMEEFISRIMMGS

AbCGT [3] = target: T1, AbCGT; assay: Kinetic parameters of AbCGT (wild type); settings: acceptor varied, saturating UDP-Glc, pH 7.4, 30 °C
Description: The reactions terminated by the addition of 200 μL of ice-cold methanol. Subsequently, samples were centrifuged at 15,000 × g for 30 min to collect the supernatant, and aliquots were analyzed by HPLC as described above. All experiments were performed in triplicate. The value of Km was calculated with the method of Lineweaver–Burk plot.

AbCGT [4] = assay: Effects of pH, temperature and divalent metal ions on AbCGT activity (phloretin 17 + UDP-Glc); remark: listed apart in the source
Description: To assay for the optimal reaction temperature, the reaction mixtures were incubated at pH 11.0 and different temperatures (15–60 °C). To test the necessity of divalent metal ions for AbCGT, BaCl2, CaCl2, CoCl2, CuCl2, FeCl2, MgCl2, MnCl2, ZnCl2, and EDTA were used individually at a final concentration of 5 mM. […] For quantification, three parallel assays were routinely carried out.

[5] = pH 5.0, citric acid-sodium citrate buffer, reaction-1
[6] = pH 6.0, Na2HPO4-NaH2PO4 buffer, reaction-2
[7] = pH 5.0, citric acid-sodium citrate buffer, reaction-2
[8] = pH 5.0, citric acid-sodium citrate buffer, reaction-3
[9] = pH 6.0, Na2HPO4-NaH2PO4 buffer, reaction-1
[10] = pH 6.0, Na2HPO4-NaH2PO4 buffer, reaction-3
[11] = pH 6.0, citric acid-sodium citrate buffer, reaction-1
[12] = pH 6.0, citric acid-sodium citrate buffer, reaction-2
[13] = pH 6.0, citric acid-sodium citrate buffer, reaction-3
[14] = pH 7.0, Na2HPO4-NaH2PO4 buffer, reaction-1
[15] = pH 7.0, Na2HPO4-NaH2PO4 buffer, reaction-2
[16] = pH 7.0, Na2HPO4-NaH2PO4 buffer, reaction-3
[17] = pH 7.0, Tris-HCl buffer, reaction-1
[18] = pH 7.0, Tris-HCl buffer, reaction-2
[19] = pH 7.0, Tris-HCl buffer, reaction-3
[20] = pH 8.0, Tris-HCl buffer, reaction-1
[21] = pH 8.0, Tris-HCl buffer, reaction-2
[22] = pH 8.0, Tris-HCl buffer, reaction-3
[23] = pH 9.0, Na2CO3-NaHCO3 buffer, reaction-1
[24] = pH 9.0, Na2CO3-NaHCO3 buffer, reaction-2
[25] = pH 9.0, Na2CO3-NaHCO3 buffer, reaction-3
[26] = pH 9.0, Tris-HCl buffer, reaction-1
[27] = pH 9.0, Tris-HCl buffer, reaction-2
[28] = pH 9.0, Tris-HCl buffer, reaction-3
[29] = pH 10.0, Na2CO3-NaHCO3 buffer, reaction-1
[30] = pH 10.0, Na2CO3-NaHCO3 buffer, reaction-2
[31] = pH 10.0, Na2CO3-NaHCO3 buffer, reaction-3
[32] = pH 11.0, Na2CO3-NaHCO3 buffer, reaction-1
[33] = pH 11.0, Na2CO3-NaHCO3 buffer, reaction-2
[34] = pH 11.0, Na2CO3-NaHCO3 buffer, reaction-3
[35] = pH 12.0, Na2CO3-NaHCO3 buffer, reaction-1
[36] = pH 12.0, Na2CO3-NaHCO3 buffer, reaction-2
[37] = pH 12.0, Na2CO3-NaHCO3 buffer, reaction-3

Structure (SMILES): O=C(CCc1ccc(O)cc1)c1c(O)cc(O)cc1O [Compound 17, phloretin]
- relative activity (AbCGT [1]; [5]): 0.2
- relative activity (AbCGT [1]; [6]): 25.2
- conversion rates, O,N,S-glycosylation (AbCGT [2]): 0%
- conversion rates, di-C-glycosylation (AbCGT [2]): 100%
- conversion rates, mono-C-glycosylation (AbCGT [2]): 0%
- Kcat (AbCGT [3]): 2 s⁻¹
- conversion rates of Phloretin (AbCGT [4]; Temperature 15, reaction-1): 11
- relative activity (AbCGT [4]; Temperature 15, reaction-1): 11.0
- conversion rates of Phloretin (AbCGT [4]; Temperature 15, reaction-2): 10.9
- relative activity (AbCGT [4]; Temperature 15, reaction-2): 10.9
- conversion rates of Phloretin (AbCGT [4]; Temperature 15, reaction-3): 12.9
- relative activity (AbCGT [4]; Temperature 15, reaction-3): 12.9
- conversion rates of Phloretin (AbCGT [4]; Temperature 25, reaction-1): 18.8
- relative activity (AbCGT [4]; Temperature 25, reaction-1): 18.8
- conversion rates of Phloretin (AbCGT [4]; Temperature 25, reaction-2): 21.4
- relative activity (AbCGT [4]; Temperature 25, reaction-2): 21.4
- conversion rates of Phloretin (AbCGT [4]; Temperature 25, reaction-3): 24.7
- relative activity (AbCGT [4]; Temperature 25, reaction-3): 24.7
- conversion rates of Phloretin (AbCGT [4]; Temperature 30, reaction-1): 39.8
- relative activity (AbCGT [4]; Temperature 30, reaction-1): 39.9
- conversion rates of Phloretin (AbCGT [4]; Temperature 30, reaction-2): 36.9
- relative activity (AbCGT [4]; Temperature 30, reaction-2): 37.0
- conversion rates of Phloretin (AbCGT [4]; Temperature 30, reaction-3): 38.5
- relative activity (AbCGT [4]; Temperature 30, reaction-3): 38.6
- conversion rates of Phloretin (AbCGT [4]; Temperature 35, reaction-1): 64.8
- relative activity (AbCGT [4]; Temperature 35, reaction-1): 64.9
- conversion rates of Phloretin (AbCGT [4]; Temperature 35, reaction-2): 57.8
- relative activity (AbCGT [4]; Temperature 35, reaction-2): 57.9
- conversion rates of Phloretin (AbCGT [4]; Temperature 35, reaction-3): 60.7
- relative activity (AbCGT [4]; Temperature 35, reaction-3): 60.8
- conversion rates of Phloretin (AbCGT [4]; Temperature 40, reaction-1): 78.1
- relative activity (AbCGT [4]; Temperature 40, reaction-1): 78.3
- conversion rates of Phloretin (AbCGT [4]; Temperature 40, reaction-2): 81
- relative activity (AbCGT [4]; Temperature 40, reaction-2): 81.2
- conversion rates of Phloretin (AbCGT [4]; Temperature 40, reaction-3): 73.2
- relative activity (AbCGT [4]; Temperature 40, reaction-3): 73.3
- conversion rates of Phloretin (AbCGT [4]; Temperature 45, reaction-1): 99.4
- relative activity (AbCGT [4]; Temperature 45, reaction-1): 99.6
- conversion rates of Phloretin (AbCGT [4]; Temperature 45, reaction-2): 100
- relative activity (AbCGT [4]; Temperature 45, reaction-2): 100.2
- conversion rates of Phloretin (AbCGT [4]; Temperature 45, reaction-3): 100
- relative activity (AbCGT [4]; Temperature 45, reaction-3): 100.2
- conversion rates of Phloretin (AbCGT [4]; Temperature 50, reaction-1): 97.7
- relative activity (AbCGT [4]; Temperature 50, reaction-1): 97.9
- conversion rates of Phloretin (AbCGT [4]; Temperature 50, reaction-2): 98
- relative activity (AbCGT [4]; Temperature 50, reaction-2): 98.2
- conversion rates of Phloretin (AbCGT [4]; Temperature 50, reaction-3): 99.1
- relative activity (AbCGT [4]; Temperature 50, reaction-3): 99.3
- conversion rates of Phloretin (AbCGT [4]; Temperature 55, reaction-1): 96.5
- relative activity (AbCGT [4]; Temperature 55, reaction-1): 96.7
- conversion rates of Phloretin (AbCGT [4]; Temperature 55, reaction-2): 95.7
- relative activity (AbCGT [4]; Temperature 55, reaction-2): 95.9
- conversion rates of Phloretin (AbCGT [4]; Temperature 55, reaction-3): 93.3
- relative activity (AbCGT [4]; Temperature 55, reaction-3): 93.5
- conversion rates of Phloretin (AbCGT [4]; Temperature 60, reaction-1): 75.4
- relative activity (AbCGT [4]; Temperature 60, reaction-1): 75.6
- conversion rates of Phloretin (AbCGT [4]; Temperature 60, reaction-2): 85.7
- relative activity (AbCGT [4]; Temperature 60, reaction-2): 85.9
- conversion rates of Phloretin (AbCGT [4]; Temperature 60, reaction-3): 80
- relative activity (AbCGT [4]; Temperature 60, reaction-3): 80.2
- conversion rates of Phloretin (AbCGT [4]; [5]): 0.2
- conversion rates of Phloretin (AbCGT [4]; [7]): 0.1
- relative activity (AbCGT [4]; [7]): 0.1
- conversion rates of Phloretin (AbCGT [4]; [8]): 0.2
- relative activity (AbCGT [4]; [8]): 0.2
- conversion rates of Phloretin (AbCGT [4]; [9]): 23.7
- relative activity (AbCGT [4]; [9]): 23.8
- conversion rates of Phloretin (AbCGT [4]; [6]): 25.1
- conversion rates of Phloretin (AbCGT [4]; [10]): 25.4
- relative activity (AbCGT [4]; [10]): 25.5
- conversion rates of Phloretin (AbCGT [4]; [11]): 11.7
- relative activity (AbCGT [4]; [11]): 11.8
- conversion rates of Phloretin (AbCGT [4]; [12]): 15.2
- relative activity (AbCGT [4]; [12]): 15.3
- conversion rates of Phloretin (AbCGT [4]; [13]): 13
- relative activity (AbCGT [4]; [13]): 13.1
- conversion rates of Phloretin (AbCGT [4]; [14]): 30.8
- relative activity (AbCGT [4]; [14]): 30.9
- conversion rates of Phloretin (AbCGT [4]; [15]): 28
- relative activity (AbCGT [4]; [15]): 28.1
- conversion rates of Phloretin (AbCGT [4]; [16]): 30.7
- relative activity (AbCGT [4]; [16]): 30.8
- conversion rates of Phloretin (AbCGT [4]; [17]): 34.2
- relative activity (AbCGT [4]; [17]): 34.4
- conversion rates of Phloretin (AbCGT [4]; [18]): 33.6
- relative activity (AbCGT [4]; [18]): 33.8
- conversion rates of Phloretin (AbCGT [4]; [19]): 34.8
- relative activity (AbCGT [4]; [19]): 35.0
- conversion rates of Phloretin (AbCGT [4]; [20]): 35
- relative activity (AbCGT [4]; [20]): 35.2
- conversion rates of Phloretin (AbCGT [4]; [21]): 36.1
- relative activity (AbCGT [4]; [21]): 36.3
- conversion rates of Phloretin (AbCGT [4]; [22]): 35.4
- relative activity (AbCGT [4]; [22]): 35.6
- conversion rates of Phloretin (AbCGT [4]; [23]): 53
- relative activity (AbCGT [4]; [23]): 53.2
- conversion rates of Phloretin (AbCGT [4]; [24]): 52.2
- relative activity (AbCGT [4]; [24]): 52.4
- conversion rates of Phloretin (AbCGT [4]; [25]): 53.9
- relative activity (AbCGT [4]; [25]): 54.2
- conversion rates of Phloretin (AbCGT [4]; [26]): 45.9
- relative activity (AbCGT [4]; [26]): 46.1
- conversion rates of Phloretin (AbCGT [4]; [27]): 46.5
- relative activity (AbCGT [4]; [27]): 46.7
- conversion rates of Phloretin (AbCGT [4]; [28]): 53
- relative activity (AbCGT [4]; [28]): 53.2
- conversion rates of Phloretin (AbCGT [4]; [29]): 89.2
- relative activity (AbCGT [4]; [29]): 89.6
- conversion rates of Phloretin (AbCGT [4]; [30]): 93
- relative activity (AbCGT [4]; [30]): 93.4
- conversion rates of Phloretin (AbCGT [4]; [31]): 92.7
- relative activity (AbCGT [4]; [31]): 93.1
- conversion rates of Phloretin (AbCGT [4]; [32]): 99.2
- relative activity (AbCGT [4]; [32]): 99.7
- conversion rates of Phloretin (AbCGT [4]; [33]): 100
- relative activity (AbCGT [4]; [33]): 100.5
- conversion rates of Phloretin (AbCGT [4]; [34]): 99.4
- relative activity (AbCGT [4]; [34]): 99.9
- conversion rates of Phloretin (AbCGT [4]; [35]): 0
- relative activity (AbCGT [4]; [35]): 0.0
- conversion rates of Phloretin (AbCGT [4]; [36]): 0
- relative activity (AbCGT [4]; [36]): 0.0
- conversion rates of Phloretin (AbCGT [4]; [37]): 0
- relative activity (AbCGT [4]; [37]): 0.0
